The values that follow come from patent publication US20230192617A1, “AZABICYCLIC(THIO)AMIDES AS FUNGICIDAL COMPOUNDS” (Bayer CropScience Aktiengesellschaft, priority 2020, published 2023).

One may read the chromatographic logP as lipophilicity estimated from chromatographic retention. Read a low chromatographic logP as lower lipophilicity. What is called inhibition is the change of the read-out against control, counted positive when it falls.

In series [1] the test system is Alternaria brassicae. In words: In vivo preventive test on Alternaria brassicae (leaf spot on radish or cabbage). The conditions noted are these: 500 ppm of active ingredient, preventive spray on radish or cabbage, evaluated 3 to 4 days after inoculation, read-out: efficacy. As to the method: B-1. In Vivo Preventive Test on Alternaria brassicae (Leaf Spot on Radish or Cabbage) [table] The active ingredients were made soluble and homogenized in a mixture of Dimethyl sulfoxide/Acetone/Tween® 80 and then diluted in water to the desired concentration. The young plants of radish or cabbage were treated by spraying the active ingredient prepared as described above. Control plants were treated only with an aqueous solution of Acetone/Dimethyl sulfoxide/Tween® 80. After 24 hours, the plants were contaminated by spraying the leaves with an aqueous suspension of Alternaria brassicae spores. The contaminated radish or cabbage plants were incubated for 3 to 4 days at 20° C. and at 100% relative humidity.

The nature of series [2]: Measurement of Log P values by HPLC on reversed phase columns (EEC directive 79/831 Annex V.A8). The following applies: reversed phase HPLC column, method [a]: LC-UV, acidic range, 0.1% formic acid in water and acetonitrile as eluent. In kind it is physicochemical. An outline of the steps:
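Reversed-phase HPLC with UV detection per EEC 79/831 Annex V.A8, linear 10–95% acetonitrile gradient. Aqueous eluent: 0.1% formic acid (acidic), 0.001 M ammonium acetate (neutral), or 0.1% phosphoric acid (acidic); multiple values in one method joined by "+".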

Series [3] has as its system Pyrenophora teres. Nature of the series: B-10. Pyrenophora teres in vitro cell test. In kind it is cell-based. The following applies: 144 h, 20 ppm of active ingredient, 6 days incubation, liquid culture, absorbance, read-out: efficacy (inhibition of fungal growth). As to the method:
(§1) B-10. Pyrenophora teres In Vitro Cell Test [table] Fungicides were solubilized in DMSO and the solution used to prepare the required range of concentrations. The final concentration of DMSO used in the assay was ≤1%. A spore suspension of P. teres was prepared and diluted to the desired spore density. Fungicides were evaluated for their ability to inhibit spore germination and mycelium growth in liquid culture assay. The compounds were added in the desired concentration to the culture medium with spores. After 6 days incubation, fungi-toxicity of compounds was determined by spectrometric measurement of mycelium growth. Inhibition of fungal growth was determined by comparing the absorbance values in wells containing the fungicides with the absorbance in control wells without fungicides.

Series [4] relates to Botrytis cinerea. Nature of the series: B-11. Botrytis cinerea in vitro cell test. The conditions noted are these: 144 h, 20 ppm of active ingredient, 6 days incubation, liquid culture, absorbance, read-out: efficacy (inhibition of fungal growth). In kind it is cell-based. As to the method:
as §1, with “B-11. Botrytis cinerea” for “B-10. Pyrenophora teres”, “B. cinerea” for “P. teres”

For series [5], the system named is Colletotrichum lindemuthianum. Nature of the series: B-8. Colletotrichum lindemuthianum in vitro cell test. In kind it is cell-based. The following applies: 144 h, 20 ppm of active ingredient, 6 days incubation, liquid culture, absorbance, read-out: efficacy (inhibition of fungal growth). As to the method: as §1, with “B-8. Colletotrichum lindemuthianum In” for “B-10. Pyrenophora teres In”, “of C. lindemuthianum” for “of P. teres”, “inhibit spores” for “inhibit spore”

Series [6] has as its system Botrytis cinerea. Nature of the series: In vivo preventive test on Botrytis cinerea (grey mould). The conditions noted are these: 500 ppm of active ingredient, preventive spray on gherkin or cabbage, evaluated 4 to 5 days after inoculation, read-out: efficacy. As to the method: B-2. In Vivo Preventive Test on Botrytis cinerea (Grey Mould) [table] The active ingredients were made soluble and homogenized in a mixture of Dimethyl sulfoxide/Acetone/Tween® 80 and then diluted in water to the desired concentration. The young plants of gherkin or cabbage were treated by spraying the active ingredient prepared as described above. Control plants were treated only with an aqueous solution of Acetone/Dimethyl sulfoxide/Tween® 80. After 24 hours, the plants were contaminated by spraying the leaves with an aqueous suspension of Botrytis cinerea spores. The contaminated gherkin plants were incubated for 4 to 5 days at 17° C. and at 90% relative humidity. The contaminated cabbage plants were incubated for 4 to 5 days at 20° C. and at 100% relative humidity.

Series [7] concerns Alternaria alternata. In words: Alternaria alternata in vitro cell test. The conditions noted are these: 120 h, 20 ppm of active ingredient, liquid culture, 5 days incubation, spectrometric measurement of mycelium growth, read-out: efficacy (inhibition of fungal growth). In kind it is cell-based. As to the method: as §1, with “B-6. Alternaria alternata” for “B-10. Pyrenophora teres”, “A. alternata” for “P. teres”, “5” for “6”

For `O=C(N[C@H]1CCOc2cc(F)ccc21)c1c(Oc2cccc(C(F)(F)F)c2)nnc2ccccc12` [I-178], in series [1], the pest or weed control at 500 ppm fell in the range of 90 to 100%. The chromatographic logP in series [2] amounted to 3.69. The inhibition at 20 ppm in series [3], in series [4] and in series [5] was 90 to 100% each time.

On to `COc1ccc(CCN(C(C)=O)C(=O)c2c(Oc3cccc(C(F)(F)F)c3)nnc3ccccc23)cc1` [I-090], for which the pest or weed control at 500 ppm in series [1] and in series [6] was 90 to 100% throughout. Moreover, the chromatographic logP in series [2] amounted to 4.32. The values for the inhibition at 20 ppm in series [3], in series [4] and in series [5] were 90 to 100%, 90 to 100% and 80 to 89%, respectively.

Regarding `CC(C)Oc1ccc(CCNC(=O)c2c(Oc3cccc(C(F)(F)F)c3)nnc3ccccc23)cn1` [I-087], the pest or weed control at 500 ppm in series [1] was 80 to 89%. In series [2], the chromatographic logP stood at 3.63. Further, the inhibition at 20 ppm in series [7], in series [3], in series [4] and in series [5] was 90 to 100% throughout.

In series [2], `O=C(N[C@H]1CCSc2ccc(F)cc21)c1c(Oc2cccc(C(F)(F)F)c2)nnc2ccccc12` (racemic) [I-095] gave a chromatographic logP of 4.02. For the same compound, the inhibition at 20 ppm in series [7] was in the range of 70 to 79%; in series [3], 90 to 100%; in series [4] it was 90 to 100%; in series [5] it was 80 to 89%. The pest or weed control at 500 ppm in series [6] fell in the range of 90 to 100%.

`O=C(N[C@H]1CCCc2ccc(Cl)cc21)c1c(Oc2cccc(C(F)(F)F)c2)nnc2ccccc12` [I-094]: the chromatographic logP in series [2] stood at 4.44. In addition, the inhibition at 20 ppm in series [7] lay in the range of 70 to 79%; in series [3], 90 to 100%; in series [4], 90 to 100%; in series [5], 90 to 100%.

For `C[C@@H]1CC[C@H](NC(=O)c2c(Oc3cccc(C(F)(F)F)c3)nnc3ccccc23)c2ccccc21` (mixture of isomers) [I-079], the pest or weed control at 500 ppm in series [1] and in series [6] was 90 to 100% throughout. The compound also had a chromatographic logP in series [2] of 4.42. Further, the inhibition at 20 ppm in series [3], in series [4] and in series [5] was 90 to 100% in each case.

For `C=C(OCC)c1ccc(C(F)(F)CNC(=O)c2c(Oc3cccc(C(F)(F)F)c3)nnc3ccccc23)c(Cl)c1` [I-169], the pest or weed control at 500 ppm in series [1] is 90 to 100%. Also, the chromatographic logP in series [2] was 5.16. The inhibition at 20 ppm in series [3] fell in the range of 90 to 100%; in series [4] it was 90 to 100%; in series [5], 80 to 89%.

Regarding `O=C(N[C@H]1CCCc2sc(C3CC3)nc21)c1c(Oc2cccc(C(F)(F)F)c2)nnc2ccccc12` (racemic) [I-091], the chromatographic logP in series [2] worked out at 3.92. The inhibition at 20 ppm is 70 to 79% in series [7], 90 to 100% in series [3], 90 to 100% in series [4] and 80 to 89% in series [5].

Consider `O=C(N[C@H]1CCCc2cc(Br)ccc21)c1c(Oc2cccc(C(F)(F)F)c2)nnc2ccccc12` (racemic) [I-193], for which the chromatographic logP in series [2] was 4.66. The inhibition at 20 ppm in series [7] is 70 to 79%; in series [3], 90 to 100%; in series [4] it was 90 to 100%; in series [5], 90 to 100%.

`C[C@H](NC(=O)c1c(Oc2cccc(C(F)(F)F)c2)nnc2ccccc12)c1ccc(Cl)s1` (racemic) [I-080] gave a chromatographic logP in series [2] of 4.1. The inhibition at 20 ppm in series [7], in series [3], in series [4] and in series [5] was 90 to 100% each time.

With `N#Cc1ccc(C(F)(F)CNC(=O)c2c(Oc3cccc(C(F)(F)F)c3)nnc3ccccc23)c(Cl)c1` [I-098], the chromatographic logP in series [2] worked out at 3.94. Besides, the inhibition at 20 ppm lay in the range of 80 to 89% in series [7], 90 to 100% in series [3] and 90 to 100% in series [4]. Besides, the pest or weed control at 500 ppm in series [6] was 90 to 100%.

`Cc1cnn(CCNC(=O)c2c(Oc3cccc(C(F)(F)F)c3)nnc3ccccc23)c1` [I-076]: the pest or weed control at 500 ppm in series [1] was 80 to 89%. The compound also returned a chromatographic logP in series [2] of 2.74. The inhibition at 20 ppm in series [3], in series [4] and in series [5] was 90 to 100% in each case.

Regarding `Cc1ccc(CCNC(=O)c2c(Oc3cccc(C(F)(F)F)c3)nnc3ccccc23)o1` [I-075], in series [2], the chromatographic logP came to 3.6. Besides, the inhibition at 20 ppm in series [7], in series [3], in series [4] and in series [5] was 90 to 100% in each case.

`Cc1ccc(C(F)CNC(=O)c2c(Oc3cccc(C(F)F)c3)nnc3c2CCCC3)c(C)c1` (stereo not drawn) [I-135]: the chromatographic logP in series [2] worked out at 3.53. The inhibition at 20 ppm in series [7], in series [3], in series [4] and in series [5] was 90 to 100% in each case.

Regarding `O=C(NC[C@H](F)c1ccc(Cl)c(Cl)c1)c1c(Oc2cccc(C(F)(F)F)c2)nnc2ccccc12` (racemic) [I-182], the chromatographic logP in series [2] is 4.33. The inhibition at 20 ppm fell in the range of 90 to 100% in series [7], 90 to 100% in series [3], 80 to 89% in series [4] and 80 to 89% in series [5].

Take `O=C(NCCOc1ccc(Cl)cc1)c1c(Oc2cccc(C(F)(F)F)c2)nnc2ccccc12` [I-085]: the pest or weed control at 500 ppm in series [1] was in the range of 90 to 100%. This compound came in with a chromatographic logP in series [2] of 3.94. For the same compound, the inhibition at 20 ppm fell in the range of 90 to 100% in series [7], 90 to 100% in series [3], 90 to 100% in series [4] and 80 to 89% in series [5].

In series [2], `O=C(C[C@H]1C[C@@]12CCc1cc(Br)ccc12)c1c(Oc2cccc(C(F)(F)F)c2)nnc2ccccc12` (mixture of isomers) [I-097] had a chromatographic logP of 4.74. Moreover, the inhibition at 20 ppm in series [7] lay within 80 to 89%; in series [3] it was 90 to 100%; in series [4], 90 to 100%; in series [5], 90 to 100%. The pest or weed control at 500 ppm in series [6] was in the range of 80 to 89%.

As to `Cc1ccc(C(F)(F)CNC(=O)c2c(Oc3cccc(C(F)(F)F)c3)nnc3cc(F)ccc23)c(C)c1` [I-166], the chromatographic logP in series [2] is 4.74. Further, the inhibition at 20 ppm in series [7], in series [3], in series [4] and in series [5] was 90 to 100% in each case.
